Source: ChEMBL document CHEMBL5321295, “Targeted Degradation of Alpha-Synuclein by Autophagosome-Anchoring Chimera Peptides” (J Med Chem, 2023)
The source made the active and inactive calls.

Tests used:
Alpha-synuclein [1] = molecular target: T1, Alpha-synuclein (Homo sapiens, UniProt P37840); test: Induction of EGFP-fused alpha-synuclein (unknown origin) degradation overexpressed in HEK293T cells co-expressing mCherry-fused LC3B assessed as puncta formation of alpha-synuclein at 50 uM incubated for 2 hrs by confocal laser scanning microscopy; assay type: cell-based
SH-SY5Y [2] = test: Cytoprotective activity in human SH-SY5Y cells transfected with alpha-synuclein (unknown origin) assessed as increase in mitochondrial membrane potential level at 100 uM measured after 24 hrs by confocal laser scanning microscopy/flow cytometry (reference value: 45.02 +/- 5.04 %); assay type: functional
[3] = Chemical stability of compound in cell culture medium at 50 uM measured for 24 hrs by HPLC analysis; assay type: physicochemical
SH-SY5Y [4] = test: Cytotoxicity against wild-type human SH-SY5Y cells assessed as cell viability upto 200 uM incubated for 24 hrs by CCK8 assay; assay type: functional, cell-based
HEK-293T [5] = test: Downregulation of SMAP expression in HEK293T cells at 100 uM incubated for 24 hrs by proteomic profiling analysis; assay type: functional, cell-based; conditions: Homo sapiens
HEK-293T [6] = test: Downregulation of THOP1 expression in HEK293T cells at 100 uM incubated for 24 hrs by proteomic profiling analysis; assay type: functional, cell-based; conditions: Homo sapiens
HEK-293T [7] = test: Downregulation of VAT1 expression in HEK293T cells at 100 uM incubated for 24 hrs by proteomic profiling analysis; assay type: functional, cell-based; conditions: Homo sapiens
HEK-293T [8] = test: Downregulation of EIF2S1 expression in HEK293T cells at 100 uM incubated for 24 hrs by proteomic profiling analysis; assay type: functional, cell-based; conditions: Homo sapiens
HEK-293T [9] = test: Downregulation of ELOB expression in HEK293T cells at 100 uM incubated for 24 hrs by proteomic profiling analysis; assay type: functional, cell-based; conditions: Homo sapiens
[10] = molecular target: T2, Microtubule-associated protein 1 light chain 3 beta (Homo sapiens, UniProt Q9GZQ8); test: Induction of LC3B-mediated autophagy flux in HEK293T cells overexpressing alpha-synuclein (unknown origin) assessed as increase in ratio of LC3B-II to LC3B-I levels incubated for 4 hrs by immunoblot analysis; assay type: cell-based; conditions: dose <= 100.0 µM
Alpha-synuclein [11] = molecular target: T1, Alpha-synuclein; test: Induction of EGFP-fused alpha-synuclein (unknown origin) degradation overexpressed in HEK293T cells assessed as colocalization of alpha-synuclein with mCherry-fused LC3B at 50 uM incubated for 2 hrs by confocal laser scanning microscopy; assay type: cell-based
[12] = molecular target: T2, Microtubule-associated protein 1 light chain 3 beta; test: Binding affinity to LC3B in HEK293T cells overexpressing alpha-synuclein (unknown origin) at 50 to 100 uM incubated for 4 hrs by co-IP assay; assay type: cell-based; conditions: dose 50-100 µM
[13] = Drug localization in HEK293T cells overexpressing mCherry-fused alpha-synuclein (unknown origin) assessed as puncta formation of alpha-synuclein at 50 uM incubated for 2 hrs by MDC staining based confocal laser scanning microscopy; assay type: ADME, cell-based; conditions: human, hek-293t
[14] = Drug localization in HEK293T cells overexpressing mCherry-fused alpha-synuclein (unknown origin) assessed as colocalization of lysosomes at 50 uM incubated for 2 hrs by MDC staining based confocal laser scanning microscopy; assay type: ADME, cell-based; conditions: human, hek-293t
Alpha-synuclein [15] = molecular target: T1, Alpha-synuclein; test: Induction of alpha-synuclein (unknown origin) degradation overexpressed in HEK293T cells at 50 uM incubated for 24 hrs in presence of MG132 by immunoblot analysis; assay type: cell-based
SH-SY5Y [16] = test: Cytoprotective activity in human SH-SY5Y cells transfected with alpha-synuclein (unknown origin) assessed as viable cells at 100 uM measured after 24 hrs by […] based flow cytometry (reference value: 28.5 %); assay type: functional; conditions: read-out: Activity
SH-SY5Y [17] = test: Cytoprotective activity in human SH-SY5Y cells transfected with alpha-synuclein (unknown origin) assessed as late apoptotic cells at 100 uM measured after 24 hrs by […] based flow cytometry (reference value: 56.6 %); assay type: functional
SH-SY5Y [18] = test: Cytoprotective activity in human SH-SY5Y cells transfected with alpha-synuclein (unknown origin) assessed as cell viability at 50 uM by CCK8 assay relative to control; assay type: functional; conditions: read-out: Activity
SH-SY5Y [19] = test: Cytoprotective activity in human SH-SY5Y cells transfected with alpha-synuclein (unknown origin) assessed as cell viability at 100 uM by CCK8 assay relative to control; assay type: functional; conditions: read-out: Activity
SH-SY5Y [20] = test: Cytoprotective activity in human SH-SY5Y cells assessed as decrease in CCCP-induced ROS level at 100 uM measured after 24 hrs by DCFH-DA staining based confocal laser scanning microscopy; assay type: functional, cell-based
SH-SY5Y [21] = test: Cytoprotective activity in human SH-SY5Y cells assessed as increase in CCCP-induced mitochondrial membrane potential level at 100 uM measured after 24 hrs by JC-1 staining based confocal laser scanning microscopy; assay type: functional, cell-based
SH-SY5Y [22] = test: Cytoprotective activity against CCCP-induced cytotoxicity in human SH-SY5Y cells assessed as cell viability at 100 uM by CCK8 assay; assay type: functional, cell-based
Mus musculus [23] = test: Neuroprotective activity in MPTP-treated C57BL/6 mouse assessed as decrease in impaired neurons in substantia nigra pars compacta at 50 mg/kg/day, iv treated for 5 days by FJB staining based microscopy; assay type: functional, organism-based; conditions: time 5.0 day
Mus musculus [24] = test: Downregulation of aggregated alpha-synuclein level in substantia nigra pars compacta of MPTP-treated C57BL/6 mouse at 50 mg/kg/day, iv treated for 5 days by IHC analysis; assay type: functional, organism-based; conditions: time 5.0 day
Mus musculus [25] = test: Downregulation of phosphorylated alpha-synuclein at S129 residue level in substantia nigra pars compacta of MPTP-treated C57BL/6 mouse at 50 mg/kg/day, iv treated for 5 days by IHC analysis; assay type: functional, organism-based; conditions: time 5.0 day
Mus musculus [26] = test: Neuroprotective activity in MPTP-induced anxiety-like status in C57BL/6 mouse assessed as increase in zone transition number of mouse track at 50 mg/kg/day, iv treated for 5 days measured after 4 days by open field test; assay type: functional, organism-based; conditions: time 9.0 day
Mus musculus [27] = test: Neuroprotective activity in MPTP-induced cognitive impairment in C57BL/6 mouse assessed as increase in platform crossover number in probe trial phase at 50 mg/kg/day, iv treated for 5 days measured after 5 to 8 days days by morris water maze test; assay type: functional, organism-based; conditions: time 10-13 day
[28] = Toxicity in C57BL/6 mouse assessed as body weight loss at 50 to 200 mg/kg/day treated for 5 days; assay type: organism-based; conditions: in vivo, 120 h, dose 50-200 mg/kg/day, time 5 day
[29] = Toxicity in C57BL/6 mouse assessed as depression in ST segment of cardiac electrophysiology at 200 mg/kg/day treated for 5 days by ECG analysis; assay type: organism-based; conditions: in vivo, 120 h, time 5 day
[30] = Toxicity in C57BL/6 mouse assessed as change in cardiac electrophysiology at 50 to 100 mg/kg/day treated for 5 days by ECG analysis; assay type: organism-based; conditions: in vivo, 120 h, dose 50-100 mg/kg/day, time 5 day
[31] = Toxicity in C57BL/6 mouse assessed as change in LDH1 level at 50 to 200 mg/kg/day treated for 5 days; assay type: organism-based; conditions: in vivo, 120 h, dose 50-200 mg/kg/day, time 5 day
[32] = Toxicity in C57BL/6 mouse assessed as histological change in heart at 50 to 200 mg/kg/day treated for 5 days by H and E staining based analysis; assay type: organism-based; conditions: in vivo, 120 h, dose 50-200 mg/kg/day, time 5 day
[33] = Toxicity in C57BL/6 mouse assessed as histological change in liver at 50 to 200 mg/kg/day treated for 5 days by H and E staining based analysis; assay type: organism-based; conditions: in vivo, 120 h, dose 50-200 mg/kg/day, time 5 day
[34] = Toxicity in C57BL/6 mouse assessed as histological change in kidney at 50 to 200 mg/kg/day treated for 5 days by H and E staining based analysis; assay type: organism-based; conditions: in vivo, 120 h, dose 50-200 mg/kg/day, time 5 day

CC(C)C[C@H](NC(=O)[C@H](Cc1c[nH]cn1)NC(=O)[C@@H](NC(=O)[C@H](Cc1c[nH]c2ccccc12)NC(=O)[C@H](CC(=O)O)NC(=O)[C@H](CC(=O)O)NC(=O)[C@H](CC(=O)O)NC(=O)CNC(=O)CNC(=O)[C@H](CO)NC(=O)[C@H](CO)NC(=O)CNC(=O)[C@H](CO)NC(=O)CNC(=O)[C@H](CCCNC(=N)N)NC(=O)[C@@H](NC(=O)[C@H](CCCCN)NC(=O)[C@H](CO)NC(=O)CNC(=O)[C@@H](NC(=O)[C@H](Cc1ccc(O)cc1)NC(=O)[C@H](CC(C)C)NC(=O)[C@@H](NC(=O)CN)C(C)C)C(C)C)[C@H](C)O)[C@@H](C)O)C(=O)N[C@@H](CO)C(=O)N[C@@H](CO)C(=O)N[C@@H](Cc1ccc(O)cc1)C(=O)NCC(=O)N[C@@H](CCCNC(=N)N)C(=O)N[C@@H](CCCCN)C(=O)N[C@@H](CCCCN)C(=O)N[C@@H](CCCNC(=N)N)C(=O)N[C@@H](CCCNC(=N)N)C(=O)N[C@@H](CCC(N)=O)C(=O)N[C@@H](CCCNC(=N)N)C(=O)N[C@@H](CCCNC(=N)N)C(=O)N[C@@H](CCCNC(=N)N)C(=O)O
Active: Drug uptake [13] | Drug uptake [14]
79.7%: Activity (SH-SY5Y [17])
Toxic: Activity [29]
91.8%: viability at 50 µM (SH-SY5Y [18])
Non-Toxic: Activity [28] | Activity [30] | Activity [31] | Activity [32] | Activity [33] | Activity [34]
61.65%: Activity (SH-SY5Y [2])
94.9%: viability at 100 µM (SH-SY5Y [19])
Stable: Stability [3]
15.5%: viability at 100 µM (SH-SY5Y [16])
inactive: Activity (SH-SY5Y [4]) | Activity (SH-SY5Y [20]) | Activity (SH-SY5Y [21]) | Activity (SH-SY5Y [22])
active: Activity (Alpha-synuclein [1]) | Activity (HEK-293T [5]) | Activity (HEK-293T [6]) | Activity (HEK-293T [7]) | Activity (HEK-293T [8]) | Activity (HEK-293T [9]) | Activity [10] Dose-Dependent Effect | Activity (Alpha-synuclein [11]) | Activity [12] | Activity (Alpha-synuclein [15]) | Activity (Mus musculus [23]) | Activity (Mus musculus [24]) | Activity (Mus musculus [25]) | Activity (Mus musculus [26]) | Activity (Mus musculus [27])
